Experimental data published in ChEMBL document CHEMBL3763020, “Tetramethylpyrazine improves the recovery of spinal cord injury via Akt/Nrf2/HO-1 pathway” (2016).
Activity calls are given as the source filed them. No cut-off for these calls is given here.

Legend:
Rattus norvegicus [1] = assay: Neuroprotective activity in Sprague-Dawley rat model of spinal cord injury assessed as decrease in IL1-beta levels in spinal cord tissue at 200 mg/kg, ip by ELISA; format: functional, organism-based
Rattus norvegicus [2] = assay: Neuroprotective activity in Sprague-Dawley rat model of spinal cord injury assessed as decrease in IL1-beta levels in spinal cord tissue at 200 mg/kg, ip by ELISA in presence of 25 umol/kg of HO-1 inhibitor ZnPP; format: functional, organism-based
Rattus norvegicus [3] = assay: Neuroprotective activity in Sprague-Dawley rat model of spinal cord injury assessed as decrease in IL1-beta levels in spinal cord tissue at 200 mg/kg, ip by ELISA in presence of Akt inhibitor LY294002; format: functional, organism-based
Rattus norvegicus [4] = assay: Neuroprotective activity in Sprague-Dawley rat model of spinal cord injury assessed as decrease in TNF-alpha levels in spinal cord tissue at 200 mg/kg, ip by ELISA; format: functional, organism-based
Rattus norvegicus [5] = assay: Neuroprotective activity in Sprague-Dawley rat model of spinal cord injury assessed as decrease in TNF-alpha levels in spinal cord tissue at 200 mg/kg, ip by ELISA in presence of 25 umol/kg of HO-1 inhibitor ZnPP; format: functional, organism-based
Rattus norvegicus [6] = assay: Neuroprotective activity in Sprague-Dawley rat model of spinal cord injury assessed as decrease in TNF-alpha levels in spinal cord tissue at 200 mg/kg, ip by ELISA in presence of Akt inhibitor LY294002; format: functional, organism-based
Rattus norvegicus [7] = assay: Neuroprotective activity in Sprague-Dawley rat model of spinal cord injury assessed as decrease in IL-18 levels in spinal cord tissue at 200 mg/kg, ip by ELISA; format: functional, organism-based
Rattus norvegicus [8] = assay: Neuroprotective activity in Sprague-Dawley rat model of spinal cord injury assessed as decrease in IL-18 levels in spinal cord tissue at 200 mg/kg, ip by ELISA in presence of 25 umol/kg of HO-1 inhibitor ZnPP; format: functional, organism-based
Rattus norvegicus [9] = assay: Neuroprotective activity in Sprague-Dawley rat model of spinal cord injury assessed as decrease in IL-18 levels in spinal cord tissue at 200 mg/kg, ip by ELISA in presence of Akt inhibitor LY294002; format: functional, organism-based
Rattus norvegicus [10] = assay: Neuroprotective activity in Sprague-Dawley rat model of spinal cord injury assessed as accumulation at G0/G1 phase at 200 mg/kg, ip by TUNEL staining-based flow cytometric analysis (reference value: 34.1 %); format: functional
Rattus norvegicus [11] = assay: Neuroprotective activity in Sprague-Dawley rat model of spinal cord injury assessed as accumulation at G0/G1 phase at 200 mg/kg, ip by TUNEL staining-based flow cytometric analysis in presence of 25 umol/kg of HO-1 inhibitor ZnPP (reference value: 34.1 %); format: functional
Rattus norvegicus [12] = assay: Neuroprotective activity in Sprague-Dawley rat model of spinal cord injury assessed as accumulation at G0/G1 phase at 200 mg/kg, ip by TUNEL staining-based flow cytometric analysis in presence of Akt inhibitor LY294002 (reference value: 34.1 %); format: functional
Rattus norvegicus [13] = assay: Neuroprotective activity in Sprague-Dawley rat model of spinal cord injury assessed as decrease in activated caspase-3 level at 200 mg/kg, ip; format: functional, organism-based
Rattus norvegicus [14] = assay: Neuroprotective activity in Sprague-Dawley rat model of spinal cord injury assessed as decrease in activated caspase-3 level at 200 mg/kg, ip in presence of 25 umol/kg of HO-1 inhibitor ZnPP; format: functional, organism-based
Rattus norvegicus [15] = assay: Neuroprotective activity in Sprague-Dawley rat model of spinal cord injury assessed as decrease in activated caspase-3 level at 200 mg/kg, ip in presence of Akt inhibitor LY294002; format: functional, organism-based
Rattus norvegicus [16] = assay: Neuroprotective activity in Sprague-Dawley rat model of spinal cord injury assessed as decrease in activated caspase-9 level at 200 mg/kg, ip; format: functional, organism-based
Rattus norvegicus [17] = assay: Neuroprotective activity in Sprague-Dawley rat model of spinal cord injury assessed as decrease in activated caspase-9 level at 200 mg/kg, ip in presence of 25 umol/kg of HO-1 inhibitor ZnPP; format: functional, organism-based
Rattus norvegicus [18] = assay: Neuroprotective activity in Sprague-Dawley rat model of spinal cord injury assessed as decrease in activated caspase-9 level at 200 mg/kg, ip in presence of Akt inhibitor LY294002; format: functional, organism-based
Rattus norvegicus [19] = assay: Neuroprotective activity in Sprague-Dawley rat model of spinal cord injury assessed as decrease in thiobarbituric acid reactive substances level at 200 mg/kg, ip by malondialdehyde assay; format: functional, organism-based
Rattus norvegicus [20] = assay: Neuroprotective activity in Sprague-Dawley rat model of spinal cord injury assessed as decrease in thiobarbituric acid reactive substances level at 200 mg/kg, ip by malondialdehyde assay in presence of 25 umol/kg of HO-1 inhibitor ZnPP; format: functional, organism-based
Rattus norvegicus [21] = assay: Neuroprotective activity in Sprague-Dawley rat model of spinal cord injury assessed as decrease in thiobarbituric acid reactive substances level at 200 mg/kg, ip by malondialdehyde assay in presence of Akt inhibitor LY294002; format: functional, organism-based
Rattus norvegicus [22] = assay: Neuroprotective activity in Sprague-Dawley rat model of spinal cord injury assessed as increase in glutathione level at 200 mg/kg, ip by reduced glutathione assay; format: functional, organism-based
Rattus norvegicus [23] = assay: Neuroprotective activity in Sprague-Dawley rat model of spinal cord injury assessed as increase in glutathione level at 200 mg/kg, ip by reduced glutathione assay in presence of 25 umol/kg of HO-1 inhibitor ZnPP; format: functional, organism-based
Rattus norvegicus [24] = assay: Neuroprotective activity in Sprague-Dawley rat model of spinal cord injury assessed as increase in glutathione level at 200 mg/kg, ip by reduced glutathione assay in presence of Akt inhibitor LY294002; format: functional, organism-based
Rattus norvegicus [25] = assay: Neuroprotective activity in Sprague-Dawley rat model of spinal cord injury assessed as increase in superoxide dismutase activity at 200 mg/kg, ip; format: functional, organism-based
Rattus norvegicus [26] = assay: Neuroprotective activity in Sprague-Dawley rat model of spinal cord injury assessed as increase in superoxide dismutase activity at 200 mg/kg, ip in presence of 25 umol/kg of HO-1 inhibitor ZnPP; format: functional, organism-based
Rattus norvegicus [27] = assay: Neuroprotective activity in Sprague-Dawley rat model of spinal cord injury assessed as increase in superoxide dismutase activity at 200 mg/kg, ip in presence of Akt inhibitor LY294002; format: functional, organism-based
Rattus norvegicus [28] = assay: Neuroprotective activity in Sprague-Dawley rat model of spinal cord injury assessed as increase in HO-1 mRNA expression at 200 mg/kg, ip by real time PCR method; format: functional, organism-based
Rattus norvegicus [29] = assay: Neuroprotective activity in Sprague-Dawley rat model of spinal cord injury assessed as increase in HO-1 mRNA expression at 200 mg/kg, ip by real time PCR method in presence of 25 umol/kg of HO-1 inhibitor ZnPP; format: functional, organism-based
Rattus norvegicus [30] = assay: Neuroprotective activity in Sprague-Dawley rat model of spinal cord injury assessed as increase in HO-1 mRNA expression at 200 mg/kg, ip by real time PCR method in presence of Akt inhibitor LY294002; format: functional, organism-based
Rattus norvegicus [31] = assay: Neuroprotective activity in Sprague-Dawley rat model of spinal cord injury assessed as increase in Akt phosphorylation at 200 mg/kg, ip by Western blot analysis; format: functional, organism-based
Rattus norvegicus [32] = assay: Neuroprotective activity in Sprague-Dawley rat model of spinal cord injury assessed as increase in Akt phosphorylation at 200 mg/kg, ip by western blot analysis in presence of 25 umol/kg of HO-1 inhibitor ZnPP; format: functional, organism-based
Rattus norvegicus [33] = assay: Neuroprotective activity in Sprague-Dawley rat model of spinal cord injury assessed as increase in Akt phosphorylation at 200 mg/kg, ip by western blot analysis in presence of Akt inhibitor LY294002; format: functional, organism-based
Rattus norvegicus [34] = assay: Neuroprotective activity in Sprague-Dawley rat model of spinal cord injury assessed as increase in Nrf2 mRNA expression at 200 mg/kg, ip by real time PCR method; format: functional, organism-based
Rattus norvegicus [35] = assay: Neuroprotective activity in Sprague-Dawley rat model of spinal cord injury assessed as increase in Nrf2 mRNA expression at 200 mg/kg, ip by real time PCR method in presence of 25 umol/kg of HO-1 inhibitor ZnPP; format: functional, organism-based
Rattus norvegicus [36] = assay: Neuroprotective activity in Sprague-Dawley rat model of spinal cord injury assessed as increase in Nrf2 mRNA expression at 200 mg/kg, ip by real time PCR method in presence of Akt inhibitor LY294002; format: functional, organism-based
Rattus norvegicus [37] = assay: Induction of Nrf2 binding to HO-1 promoter in Sprague-Dawley rat model of spinal cord injury at 200 mg/kg, ip by chromatin immunoprecipitation assay; format: functional, organism-based
Rattus norvegicus [38] = assay: Induction of Nrf2 binding to HO-1 promoter in Sprague-Dawley rat model of spinal cord injury at 200 mg/kg, ip by chromatin immunoprecipitation assay in presence of 25 umol/kg of HO-1 inhibitor ZnPP; format: functional, organism-based
Rattus norvegicus [39] = assay: Induction of Nrf2 binding to HO-1 promoter in Sprague-Dawley rat model of spinal cord injury at 200 mg/kg, ip by chromatin immunoprecipitation assay in presence of Akt inhibitor LY294002; format: functional, organism-based
Rattus norvegicus [40] = assay: Neuroprotective activity in Sprague-Dawley rat model of spinal cord injury assessed as locomotor function recovery at 200 mg/kg, ip measured during 3 to 28 days; format: functional, organism-based
Rattus norvegicus [41] = assay: Neuroprotective activity in Sprague-Dawley rat model of spinal cord injury assessed as decrease in Evans blue leakage in spinal cord tissue at 200 mg/kg, ip after 24 hrs in presence of 25 umol/kg of HO-1 inhibitor ZnPP; format: functional, organism-based
Rattus norvegicus [42] = assay: Neuroprotective activity in Sprague-Dawley rat model of spinal cord injury assessed as locomotor function recovery at 200 mg/kg, ip measured during 3 to 28 days in presence of 25 umol/kg of HO-1 inhibitor ZnPP; format: functional, organism-based
Rattus norvegicus [43] = assay: Neuroprotective activity in Sprague-Dawley rat model of spinal cord injury assessed as locomotor function recovery at 200 mg/kg, ip measured during 3 to 28 days in presence of Akt inhibitor LY294002; format: functional, organism-based
Rattus norvegicus [44] = assay: Neuroprotective activity in Sprague-Dawley rat model of spinal cord injury assessed as decrease in Evans blue leakage in spinal cord tissue at 200 mg/kg, ip after 24 hrs; format: functional, organism-based
Rattus norvegicus [45] = assay: Neuroprotective activity in Sprague-Dawley rat model of spinal cord injury assessed as decrease in Evans blue leakage in spinal cord tissue at 200 mg/kg, ip after 24 hrs in presence of Akt inhibitor LY294002; format: functional, organism-based
Rattus norvegicus [46] = assay: Neuroprotective activity in Sprague-Dawley rat model of spinal cord injury assessed as decrease in Evans blue leakage in spinal cord tissue at 200 mg/kg, ip after 48 hrs; format: functional, organism-based
Rattus norvegicus [47] = assay: Neuroprotective activity in Sprague-Dawley rat model of spinal cord injury assessed as decrease in Evans blue leakage in spinal cord tissue at 200 mg/kg, ip after 48 hrs in presence of 25 umol/kg of HO-1 inhibitor ZnPP; format: functional, organism-based
Rattus norvegicus [48] = assay: Neuroprotective activity in Sprague-Dawley rat model of spinal cord injury assessed as decrease in Evans blue leakage in spinal cord tissue at 200 mg/kg, ip after 48 hrs in presence of Akt inhibitor LY294002; format: functional, organism-based

Cc1nc(C)c(C)nc1C [LIGUSTRAZINE]
Activity (Rattus norvegicus [1]): Active
Activity (Rattus norvegicus [2]): inactive
Activity (Rattus norvegicus [3]): inactive
Activity (Rattus norvegicus [4]): Active
Activity (Rattus norvegicus [5]): inactive
Activity (Rattus norvegicus [6]): inactive
Activity (Rattus norvegicus [7]): Active
Activity (Rattus norvegicus [8]): inactive
Activity (Rattus norvegicus [9]): inactive
Activity (Rattus norvegicus [10]): 8%
Activity (Rattus norvegicus [11]): 15%
Activity (Rattus norvegicus [12]): 16.2%
Activity (Rattus norvegicus [13]): Active
Activity (Rattus norvegicus [14]): inactive
Activity (Rattus norvegicus [15]): inactive
Activity (Rattus norvegicus [16]): Active
Activity (Rattus norvegicus [17]): inactive
Activity (Rattus norvegicus [18]): inactive
Activity (Rattus norvegicus [19]): Active
Activity (Rattus norvegicus [20]): inactive
Activity (Rattus norvegicus [21]): inactive
Activity (Rattus norvegicus [22]): Active
Activity (Rattus norvegicus [23]): inactive
Activity (Rattus norvegicus [24]): inactive
Activity (Rattus norvegicus [25]): Active
Activity (Rattus norvegicus [26]): inactive
Activity (Rattus norvegicus [27]): inactive
Activity (Rattus norvegicus [28]): Active
Activity (Rattus norvegicus [29]): inactive
Activity (Rattus norvegicus [30]): inactive
Activity (Rattus norvegicus [31]): Active
Activity (Rattus norvegicus [32]): Active
Activity (Rattus norvegicus [33]): Active
Activity (Rattus norvegicus [34]): Active
Activity (Rattus norvegicus [35]): Active
Activity (Rattus norvegicus [36]): inactive
Activity (Rattus norvegicus [37]): Active
Activity (Rattus norvegicus [38]): Active
Activity (Rattus norvegicus [39]): inactive
Activity (Rattus norvegicus [40]): Active
Activity (Rattus norvegicus [41]): inactive
Activity (Rattus norvegicus [42]): inactive
Activity (Rattus norvegicus [43]): inactive
Activity (Rattus norvegicus [44]): Active
Activity (Rattus norvegicus [45]): inactive
Activity (Rattus norvegicus [46]): Active
Activity (Rattus norvegicus [47]): inactive
Activity (Rattus norvegicus [48]): inactive
